# Source: US12528786B2, “Plasma kallikrein inhibitors” (Merck Sharp & Dohme LLC, priority 2020, dated 2026)
# Biological target: T1, Human plasma kallikrein (Homo sapiens, UniProt P03952)
# T1 construct: yields a heavy chain (371 amino acids) and a light chain (248 amino acids); purchased Enzyme Research Laboratories
# Test: Kallikrein Assay (fluorogenic substrate hydrolysis, AFC release)
# Type: biochemical
# Details: purified Human plasma kallikrein 0.5 nM; substrate Acetyl-K—P—R-AFC 100 mM; 50 mM HEPES pH 7.4
# Method in brief: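 Enzyme–inhibitor equilibrated before substrate dilution to ≤0.2 Km; human plasma kallikrein at 0.5 nM final, Acetyl-K-P-R-AFC substrate, HEPES pH 7.4 buffer with NaCl, CaCl2, PEG 8000, at room temperature or 37° C. Linear-phase fluorescence rate gives percent inhibition, four-parameter logistic IC50, then Cheng-Prusoff Ki.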
# T1 sequence (P03952 391-638 limits assumed): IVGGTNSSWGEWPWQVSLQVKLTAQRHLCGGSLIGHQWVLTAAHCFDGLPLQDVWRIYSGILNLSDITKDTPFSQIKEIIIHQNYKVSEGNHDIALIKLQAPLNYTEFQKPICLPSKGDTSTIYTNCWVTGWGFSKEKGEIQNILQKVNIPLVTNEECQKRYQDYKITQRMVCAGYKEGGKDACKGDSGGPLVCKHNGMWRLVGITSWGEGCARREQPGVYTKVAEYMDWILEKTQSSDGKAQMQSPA
# T1 sequence (P03952 20-390 partner limits assumed): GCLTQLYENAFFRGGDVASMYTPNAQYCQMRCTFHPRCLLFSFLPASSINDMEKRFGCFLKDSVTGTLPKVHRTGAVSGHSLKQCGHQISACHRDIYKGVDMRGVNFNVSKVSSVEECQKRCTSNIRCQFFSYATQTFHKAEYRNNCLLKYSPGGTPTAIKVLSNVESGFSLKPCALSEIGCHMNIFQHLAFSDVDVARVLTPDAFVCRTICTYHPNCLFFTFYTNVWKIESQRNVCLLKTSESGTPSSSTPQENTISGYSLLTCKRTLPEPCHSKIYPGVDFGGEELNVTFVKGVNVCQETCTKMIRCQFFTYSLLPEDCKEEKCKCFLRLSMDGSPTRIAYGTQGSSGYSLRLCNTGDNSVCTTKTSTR
smiles,measurement,value
"Cc1c(C(C)n2cc(C(=O)N[C@H]3C[C@@H](c4cc(Cl)ccc4C#N)C3)nn2)cnc(N2C[C@H]3C[C@H]3C2=O)c1C (single isomer, unassigned) [Example 86, N-((cis)-3-(5-chloro-2-cyanophenyl)cyclobutyl)-1-((R or S)-1-(4,5-dimethyl-6-((1R,5S)-2-oxo-3-azabicyclo[3.1.0]hexan-3-yl)pyridin-3-yl)ethyl)-1H-1,2,3-triazole-4-carboxamide]",IC50,1.1 nM
"Cc1c(C(C)n2cc(C(=O)N[C@H]3C[C@@H](c4cc(Cl)ccc4C#N)C3)nn2)cnc(N2C[C@H]3C[C@H]3C2=O)c1C (single isomer, unassigned) [Example 87, N-((cis)-3-(5-chloro-2-cyanophenyl)cyclobutyl)-1-((S or R)-1-(4,5-dimethyl-6-((1R,5S)-2-oxo-3-azabicyclo[3.1.0]hexan-3-yl)pyridin-3-yl)ethyl)-1H-1,2,3-triazole-4-carboxamide]",IC50,0.5 nM
"COc1cc(N2C[C@H]3C[C@H]3C2=O)ncc1C(C)n1cc(C(=O)N[C@H]2C[C@@H](c3cc(Cl)ccc3C#N)C2)nn1 (single isomer, unassigned) [Example 88, N-((cis)-3-(5-chloro-2-cyanophenyl)cyclobutyl)-1-((R or S)-1-(4-methoxy-6-((1R,5S)-2-oxo-3-azabicyclo[3.1.0]hexan-3-yl)pyridin-3-yl)ethyl)-1H-1,2,3-triazole-4-carboxamide]",IC50,11.3 nM
"COc1cc(N2C[C@H]3C[C@H]3C2=O)ncc1C(C)n1cc(C(=O)N[C@H]2C[C@@H](c3cc(Cl)ccc3C#N)C2)nn1 (single isomer, unassigned) [Example 89, N-((cis)-3-(5-chloro-2-cyanophenyl)cyclobutyl)-1-((S or R)-1-(4-methoxy-6-((1R,5S)-2-oxo-3-azabicyclo[3.1.0]hexan-3-yl)pyridin-3-yl)ethyl)-1H-1,2,3-triazole-4-carboxamide]",IC50,1.1 nM
"Cc1cc(N2C[C@H]3C[C@H]3C2=O)cnc1C(C)n1cc(C(=O)N[C@H]2C[C@@H](c3cc(Cl)ccc3C#N)C2)nn1 (single isomer, unassigned) [Example 90, N-((cis)-3-(5-chloro-2-cyanophenyl)cyclobutyl)-1-((R or S)-1-(3-methyl-5-((1R,5S)-2-oxo-3-azabicyclo[3.1.0]hexan-3-yl)pyridin-2-yl)ethyl)-1H-1,2,3-triazole-4-carboxamide]",IC50,153 nM
"Cc1cc(N2C[C@H]3C[C@H]3C2=O)cnc1C(C)n1cc(C(=O)N[C@H]2C[C@@H](c3cc(Cl)ccc3C#N)C2)nn1 (single isomer, unassigned) [Example 91, N-((cis)-3-(5-chloro-2-cyanophenyl)cyclobutyl)-1-((S or R)-1-(3-methyl-5-((1R,5S)-2-oxo-3-azabicyclo[3.1.0]hexan-3-yl)pyridin-2-yl)ethyl)-1H-1,2,3-triazole-4-carboxamide]",IC50,1.5 nM
"CC(c1ncc(N2C[C@H]3C[C@H]3C2=O)cc1F)n1cc(C(=O)N[C@H]2C[C@@H](c3cc(Cl)ccc3C#N)C2)nn1 (single isomer, unassigned) [Example 92, N-((cis)-3-(5-chloro-2-cyanophenyl)cyclobutyl)-1-((R or S)-1-(3-fluoro-5-((1R,5S)-2-oxo-3-azabicyclo[3.1.0]hexan-3-yl)pyridin-2-yl)ethyl)-1H-1,2,3-triazole-4-carboxamide]",IC50,38.1 nM
"CC(c1ncc(N2C[C@H]3C[C@H]3C2=O)cc1F)n1cc(C(=O)N[C@H]2C[C@@H](c3cc(Cl)ccc3C#N)C2)nn1 (single isomer, unassigned) [Example 93, N-((cis)-3-(5-chloro-2-cyanophenyl)cyclobutyl)-1-((S or R)-1-(3-fluoro-5-((1R,5S)-2-oxo-3-azabicyclo[3.1.0]hexan-3-yl)pyridin-2-yl)ethyl)-1H-1,2,3-triazole-4-carboxamide]",IC50,4.3 nM
"Cc1nc(N2C[C@H]3C[C@H]3C2=O)ccc1C(C)n1cc(C(=O)N[C@H]2C[C@@H](c3cc(Cl)ccc3C#N)C2)nn1 (single isomer, unassigned) [Example 94, N-((cis)-3-(5-chloro-2-cyanophenyl)cyclobutyl)-1-((R or S)-1-(2-methyl-6-((1R,5S)-2-oxo-3-azabicyclo[3.1.0]hexan-3-yl)pyridin-3-yl)ethyl)-1H-1,2,3-triazole-4-carboxamide]",IC50,178 nM
"Cc1nc(N2C[C@H]3C[C@H]3C2=O)ccc1C(C)n1cc(C(=O)N[C@H]2C[C@@H](c3cc(Cl)ccc3C#N)C2)nn1 (single isomer, unassigned) [Example 95, N-((cis)-3-(5-chloro-2-cyanophenyl)cyclobutyl)-1-((S or R)-1-(2-methyl-6-((1R,5S)-2-oxo-3-azabicyclo[3.1.0]hexan-3-yl)pyridin-3-yl)ethyl)-1H-1,2,3-triazole-4-carboxamide]",IC50,10.7 nM
"Cc1c(C(C)n2cc(C(=O)N[C@H]3C[C@@H](c4cc(Cl)ccc4C#N)C3)nn2)cnc(N2C[C@H]3C[C@H]3C2=O)c1F (single isomer, unassigned) [Example 96, N-((cis)-3-(5-chloro-2-cyanophenyl)cyclobutyl)-1-((R or S)-1-(5-fluoro-4-methyl-6-((1R,5S)-2-oxo-3-azabicyclo[3.1.0]hexan-3-yl)pyridin-3-yl)ethyl)-1H-1,2,3-triazole-4-carboxamide]",IC50,0.2 nM
"Cc1c(C(C)n2cc(C(=O)N[C@H]3C[C@@H](c4cc(Cl)ccc4C#N)C3)nn2)cnc(N2C[C@H]3C[C@H]3C2=O)c1F (single isomer, unassigned) [Example 97, N-((cis)-3-(5-chloro-2-cyanophenyl)cyclobutyl)-1-((S or R)-1-(5-fluoro-4-methyl-6-((1R,5S)-2-oxo-3-azabicyclo[3.1.0]hexan-3-yl)pyridin-3-yl)ethyl)-1H-1,2,3-triazole-4-carboxamide]",IC50,4.4 nM
"Cc1ccc(C#N)c([C@H]2C[C@@H](NC(=O)c3cn(C(C)c4cnc(N5C[C@H]6C[C@H]6C5=O)c(C)c4C)nn3)C2)n1 (single isomer, unassigned) [Example 98, N-((cis)-3-(3-cyano-6-methylpyridin-2-yl)cyclobutyl)-1-((R or S)-1-(4,5-dimethyl-6-((1R,5S)-2-oxo-3-azabicyclo[3.1.0]hexan-3-yl)pyridin-3-yl)ethyl)-1H-1,2,3-triazole-4-carboxamide]",IC50,27.5 nM
"Cc1ccc(C#N)c([C@H]2C[C@@H](NC(=O)c3cn(C(C)c4cnc(N5C[C@H]6C[C@H]6C5=O)c(C)c4C)nn3)C2)n1 (single isomer, unassigned) [Example 99, N-((cis)-3-(3-cyano-6-methylpyridin-2-yl)cyclobutyl)-1-((S or R)-1-(4,5-dimethyl-6-((1R,5S)-2-oxo-3-azabicyclo[3.1.0]hexan-3-yl)pyridin-3-yl)ethyl)-1H-1,2,3-triazole-4-carboxamide]",IC50,0.6 nM
"COc1cc(C(C)n2cc(C(=O)N[C@H]3C[C@@H](c4cc(Cl)ccc4C#N)C3)nn2)cnc1N1C[C@H]2C[C@H]2C1=O (single isomer, unassigned) [Example 101, N-((cis)-3-(5-chloro-2-cyanophenyl)cyclobutyl)-1-((R or S)-1-(5-methoxy-6-((1R,5S)-2-oxo-3-azabicyclo[3.1.0]hexan-3-yl)pyridin-3-yl)ethyl)-1H-1,2,3-triazole-4-carboxamide]",IC50,1.8 nM
"COc1cc(C(C)n2cc(C(=O)N[C@H]3C[C@@H](c4cc(Cl)ccc4C#N)C3)nn2)cnc1N1C[C@H]2C[C@H]2C1=O (single isomer, unassigned) [Example 102, N-((cis)-3-(5-chloro-2-cyanophenyl)cyclobutyl)-1-((S or R)-1-(5-methoxy-6-((1R,5S)-2-oxo-3-azabicyclo[3.1.0]hexan-3-yl)pyridin-3-yl)ethyl)-1H-1,2,3-triazole-4-carboxamide]",IC50,3.2 nM
"CC(c1cnc(N2C[C@H]3C[C@H]3C2=O)c(F)c1)n1cc(C(=O)N[C@H]2C[C@@H](c3cc(Cl)ccc3C#N)C2)nn1 (single isomer, unassigned) [Example 103, N-((cis)-3-(5-chloro-2-cyanophenyl)cyclobutyl)-1-((R or S)-1-(5-fluoro-6-((1R,5S)-2-oxo-3-azabicyclo[3.1.0]hexan-3-yl)pyridin-3-yl)ethyl)-1H-1,2,3-triazole-4-carboxamide]",IC50,2.1 nM
"CC(c1cnc(N2C[C@H]3C[C@H]3C2=O)c(F)c1)n1cc(C(=O)N[C@H]2C[C@@H](c3cc(Cl)ccc3C#N)C2)nn1 (single isomer, unassigned) [Example 104, N-((cis)-3-(5-chloro-2-cyanophenyl)cyclobutyl)-1-((S or R)-1-(5-fluoro-6-((1R,5S)-2-oxo-3-azabicyclo[3.1.0]hexan-3-yl)pyridin-3-yl)ethyl)-1H-1,2,3-triazole-4-carboxamide]",IC50,4.3 nM
"COc1cc(C(C)n2cc(C(=O)N[C@H]3C[C@@](C)(c4cc(Cl)ccc4C#N)C3)nn2)cnc1N1C[C@H]2C[C@H]2C1=O (single isomer, unassigned) [Example 105, N-((cis)-3-(5-chloro-2-cyanophenyl)-3-methylcyclobutyl)-1-((R or S)-1-(5-methoxy-6-((1R,5S)-2-oxo-3-azabicyclo[3.1.0]hexan-3-yl)pyridin-3-yl)ethyl)-1H-1,2,3-triazole-4-carboxamide]",IC50,0.6 nM
"COc1cc(C(C)n2cc(C(=O)N[C@H]3C[C@@](C)(c4cc(Cl)ccc4C#N)C3)nn2)cnc1N1C[C@H]2C[C@H]2C1=O (single isomer, unassigned) [Example 106, N-((cis)-3-(5-chloro-2-cyanophenyl)-3-methylcyclobutyl)-1-((S or R)-1-(5-methoxy-6-((1R,5S)-2-oxo-3-azabicyclo[3.1.0]hexan-3-yl)pyridin-3-yl)ethyl)-1H-1,2,3-triazole-4-carboxamide]",IC50,2.2 nM
